Laboratory results published in PMC12426935, “On-Cell Saturation Transfer Difference NMR Spectroscopy on Ion Channels: Characterizing Negative Allosteric Modulator Binding Interactions of P2X7” (Journal of the American Chemical Society, 2025).
Where two headings read alike, the source gives them in different places.

What was measured:
rat P2X7 (rP2X7) = biological target: T1, rat P2X7 (rP2X7) (Rattus norvegicus, UniProt Q64663); assay: fura-2 intracellular calcium assay on HEK-293 stable cell line expressing rat P2X7; type: cell-based; details: Rat P2X7 (Table 1), n = 3
T1 construct: expressed in transfected cells
T1 sequence (Q64663 1-595): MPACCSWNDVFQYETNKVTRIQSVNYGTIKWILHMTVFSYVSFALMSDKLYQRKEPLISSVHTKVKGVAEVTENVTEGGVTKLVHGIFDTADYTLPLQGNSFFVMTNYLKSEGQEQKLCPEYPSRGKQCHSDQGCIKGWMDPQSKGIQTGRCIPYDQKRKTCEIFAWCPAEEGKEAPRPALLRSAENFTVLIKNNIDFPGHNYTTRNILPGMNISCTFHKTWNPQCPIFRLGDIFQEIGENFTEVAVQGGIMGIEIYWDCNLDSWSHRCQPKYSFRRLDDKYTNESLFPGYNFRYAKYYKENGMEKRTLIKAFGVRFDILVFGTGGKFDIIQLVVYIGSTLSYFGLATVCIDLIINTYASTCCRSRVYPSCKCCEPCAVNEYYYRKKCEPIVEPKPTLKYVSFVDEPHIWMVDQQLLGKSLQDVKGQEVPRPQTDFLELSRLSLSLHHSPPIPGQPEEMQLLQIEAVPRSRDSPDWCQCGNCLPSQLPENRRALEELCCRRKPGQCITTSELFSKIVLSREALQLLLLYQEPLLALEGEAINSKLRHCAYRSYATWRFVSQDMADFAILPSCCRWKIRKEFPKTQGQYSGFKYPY
Description: (§1) Genetically edited HEK-293 cells lacking P2Y2 receptors were used to generate stable cell lines expressing human P2X7 (hP2X7), mouse P2X7 (mP2X7), rat P2X7 (rP2X7), or mutants of the hP2X7 NAM site (F88A, M105A, and F103A). Transfection was performed using lipofectamine 2000 (Fisher Scientific), and cells were subjected to Geneticin (800 μg/mL) selection for 2–3 weeks. This was followed by single cell cloning by limiting dilution in 96-well plates. Individual clones were selected for further study based on ATP-induced TO-PRO-3 uptake on a BD Cytoflex flow cytometer. Cell lines were maintained in DMEM:F12 media supplemented with 10% fetal bovine serum (PanBiotech), penicillin and streptomycin (Fisher Scientific) and kept in a humidified incubator with 5% CO2. Stable P2X7-expressing cells were kept under Geneticin selection at a concentration of 400 μg/mL. Passaging was performed twice weekly using 0.25% Trypsin-EDTA (Fisher Scientific).
(§2) P2X7 responses were measured by monitoring intracellular calcium responses using fura-2AM loaded cells. Cells were plated at 2–2.5 × 10^4 cells/well the day before experiments in 96-well plates (NUNC) coated with 50 μg/mL poly-D-lysine (Merck Millipore). A loading buffer containing 2 μM fura-2AM (HelloBio) and 250 μM sulfinpyrazone (Merck Millipore) in a low divalent buffer (145 mM NaCl, 5 mM KCl, 0.2 mM CaCl2, 10 mM HEPES, 13 mM glucose, pH 7.3) was added to cells for 45 min at 37 °C. After loading, the buffer was removed and replaced with calcium-containing extracellular solution (145 mM NaCl, 5 mM KCl, 2 mM CaCl2, 10 mM HEPES, 13 mM glucose, pH 7.3). Responses were measured using a Flexstation 3 plate reader (Molecular Devices) with dual excitation wavelengths of 340 and 380 nm and single emission wavelength of 510 nm. The sample interval was 3.5 s, and each well was recorded for 180 s. Fura-2 ratios were calculated in Softmax Pro v5.4; zero baseline was applied, and responses were measured as normalized area under the curve (AUC). Dose inhibition curves were plotted using GraphPad Prism v6 nonlinear regression (three parameter fit) and log IC50 values reported.

F88A hP2X7 = biological target: T2, F88A hP2X7 (Homo sapiens, UniProt Q99572, F88A); assay: fura-2 intracellular calcium assay on HEK-293 stable cell line expressing NAM-site mutant F88A hP2X7; type: cell-based; details: for IC50: n = 3
T2 sequence (Q99572 1-595 F88A): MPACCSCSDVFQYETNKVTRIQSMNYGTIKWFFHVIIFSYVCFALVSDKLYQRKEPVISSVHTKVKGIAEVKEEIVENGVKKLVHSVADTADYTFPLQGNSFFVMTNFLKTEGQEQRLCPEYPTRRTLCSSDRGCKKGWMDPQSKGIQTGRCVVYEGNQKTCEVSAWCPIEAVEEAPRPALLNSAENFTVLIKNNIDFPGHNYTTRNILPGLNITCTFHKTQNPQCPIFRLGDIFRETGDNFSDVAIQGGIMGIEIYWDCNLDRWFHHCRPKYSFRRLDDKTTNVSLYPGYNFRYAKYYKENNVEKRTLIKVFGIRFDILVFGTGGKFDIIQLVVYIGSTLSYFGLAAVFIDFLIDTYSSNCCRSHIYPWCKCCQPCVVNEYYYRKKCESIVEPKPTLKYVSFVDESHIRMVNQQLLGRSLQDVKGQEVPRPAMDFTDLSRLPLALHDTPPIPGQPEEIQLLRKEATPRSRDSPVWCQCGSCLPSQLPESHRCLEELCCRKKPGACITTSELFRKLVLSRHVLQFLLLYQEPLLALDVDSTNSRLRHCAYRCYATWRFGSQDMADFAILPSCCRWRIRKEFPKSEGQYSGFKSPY
Description: as §1, with “Transfection” for “Genetically edited HEK-293 cells lacking P2Y2 receptors were used to generate stable cell lines expressing human P2X7 (hP2X7), mouse P2X7 (mP2X7), rat P2X7 (rP2X7), or mutants of the hP2X7 NAM site (F88A, M105A, and F103A). Transfection”
as §2

O=C(NCC1(N2CCN(c3ccccc3)CC2)CCOCC1)c1cccnc1Sc1ccccc1 [JNJ-47965567]
IC50 (rat P2X7 (rP2X7); log IC50 ± standard error, read-out: Log IC50 (converted)): 17.4 nM | IC50 (rat P2X7 (rP2X7); mean in brackets, read-out: mean IC50): 17.6 nM | IC50 (F88A hP2X7; F88A hP2X7, agonist ATP, log IC50 ± standard error, read-out: Log IC50 (converted)): 121 nM | IC50 (F88A hP2X7; F88A hP2X7, agonist ATP, mean in brackets, read-out: mean IC50): 125 nM | IC50 (F88A hP2X7; F88A hP2X7, agonist BzATP, mean in brackets, read-out: mean IC50): 53.8 nM | increase in IC50 at F88A relative to hP2X7 (F88A hP2X7; F88A hP2X7 vs hP2X7): 10 fold
